Measured values reported in patent US11389415B2, “Methods of regulating cannabinoid receptor activity-related disorders and diseases” (The United States of America as represented by the …, priority 2012, dated 2022).

What was measured:
HepG2 cells = experiment: Cell cycle analysis by flow cytometry in HepG2 cells; assay type: cell-based, human; conditions: HepG2, 1 μM
Protocol: Cell Cycle Analysis. Cell cycle distributions were performed by flow cytometry on propidium iodide-stained nuclei prepared by the NIM technique. DNA histograms of at least 10,000 cells acquired on a Becton-Dickinson FACScanto II (BD Biosciences, San Jose, Calif.) were deconvoluted using the Multicycle program (Phoenix Flow Systems) for estimates of the percentage of cells in the G0/1, S, and G2+M phases of the cell cycle. Debris and doublets were removed from the analysis by software algorithms.

GPR55 = GPR55 (Homo sapiens, UniProt Q9Y2T6); experiment: Cellular uptake of TocriFluor T1117 in PANC-1 cells; conditions: MNF 1 μM
Sequence of GPR55 (Q9Y2T6 whole entry): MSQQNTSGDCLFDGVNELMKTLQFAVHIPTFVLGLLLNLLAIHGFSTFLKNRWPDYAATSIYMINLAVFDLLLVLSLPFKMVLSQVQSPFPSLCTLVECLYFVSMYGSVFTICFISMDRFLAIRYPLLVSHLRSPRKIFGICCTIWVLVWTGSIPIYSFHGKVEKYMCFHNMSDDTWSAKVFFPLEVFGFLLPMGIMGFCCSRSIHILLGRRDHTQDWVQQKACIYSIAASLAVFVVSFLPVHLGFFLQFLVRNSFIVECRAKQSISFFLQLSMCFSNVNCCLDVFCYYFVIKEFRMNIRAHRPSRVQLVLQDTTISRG
Protocol: Cellular uptake of TocriFluor T1117, a fluorescently labeled GPR55 agonist Cells were grown in 35-mm glass bottom culture dishes (MatTek Corp., Ashland, Mass., USA) for 48 hours until reaching ˜70% confluence. […] Cells were imaged with a Zeiss LSM 710 confocal microscope equipped with a temperature-controlled and humidified CO2 chamber and a definite focus system. […] The time-series function of the Zeiss Zen software was used to collect images with a 40×1.3 NA objective every 30 s for up to one hour, with all confocal settings remaining the same throughout the studies. Still images, movies and fluorescent intensity quantitation were obtained from these series using the Zeiss Zen software. Studies were repeated at least two to three times.

**Q.** What does the source list for COc1ccc(C[C@@H](C)NC[C@H](O)c2cc(O)cc(O)c2)c2ccccc12 [(R,R′)-MNF, (R,R′)-4′-methoxy-1-naphthylfenoterol]?
**A.** G2/M-phase cell population (HepG2 cells; after 6 h (control 13.8±1.1%)): 10.2±0.9%; S-phase cell population (HepG2 cells; after 6 h (control 34.7±0.3%)): 34.1±0.9%; G2/M-phase cell population (HepG2 cells; after 12 h): 14.6±1.8%; S-phase cell population (HepG2 cells; after 12 h): 13.7±1.2%; G2/M-phase cell population (HepG2 cells; after 24 h): 8.9±1.6%; S-phase cell population (HepG2 cells; after 24 h): 24.6±4.2%; number of sub-G1 events, maximum (HepG2 cells; by 12 hours): 21.5±0.7%; T1117 incorporation (GPR55): potent inhibitor of T1117 incorporation in PANC-1 cells
